Results as given in patent publication US10189845B2, “4,6-substituted-pyrazolo[1,5-a]pyrazines as janus kinase inhibitors” (ARRAY BIOPHARMA INC., priority 2014, dated 2019).
Like-named read-outs stand apart in the source and are kept apart here.

Experiments:
Assay type in all cases: biochemical
[1] = target: JAK1 (Homo sapiens (Human), UniProt P23458); test: JAK1 Inhibition Assay (Example B, Omnia kinase fluorescence peptide substrate assay)
In short: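 Recombinant human JAK1 (12.5 nM) with 1 mM ATP and 8 μM Omnia Y12 Sox-peptide in 25 mM HEPES pH 7.4, 10 mM MgCl2, 0.01% Triton X-100, 1 mM DTT, 2% DMSO final. Phosphorylation read kinetically (ex 360/em 485 nm, 45 min); IC50 from 4-parameter fit of percent of control.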

[2] = target: JAK2 (Homo sapiens (Human), UniProt O60674); test: JAK2 Inhibition Assay (Example C, Omnia kinase fluorescence peptide substrate assay); conditions: JAK2 Enzyme IC50 1 mM ATP, averaged IC50 ranges
In short: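 4 nM JAK2 with 1 mM ATP and 10 μM Omnia Y7 peptide in 25 mM HEPES pH 7.4, 10 mM MgCl2, 0.01% Triton X-100, 1 mM DTT, 2% DMSO. Sox fluorescence (ex 360/em 485 nm) read every 50 s for 45 min; IC50 from 4-parameter fit of percent of control.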

[3] = target: JAK3 (Homo sapiens (Human), UniProt P52333); test: JAK3 Inhibition Assay (Example D, Omnia kinase fluorescence peptide substrate assay)
In short: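 Mixture held 2 nM JAK3, 1 mM ATP and 10 μM Omnia Y7 peptide in 25 mM HEPES pH 7.4, 10 mM MgCl2, 0.01% Triton X-100, 1 mM DTT, 2% DMSO final. Sox fluorescence (ex 360/em 485 nm) was read every 50 s for 45 min. IC50 came from a 4-parameter logistic fit of percent of control.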

[4] = target: Human Tyk2 kinase domain (Homo sapiens (Human), UniProt P29597); test: Tyk2 Inhibition Assay (Example A, Omnia kinase fluorescence peptide substrate assay); conditions: TYK2 Enzyme IC50 1 mM ATP, averaged IC50 ranges
In short: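 Omnia Sox-peptide kinetic fluorescence assay (ex 360/em 485 nm, read every 50 s for 45 min) with 1 nM human Tyk2 kinase domain (aa 886–1187, His tag cleaved, baculovirus-expressed), 1 mM ATP, 8 μM Omnia Y12 peptide, in 25 mM HEPES pH 7.4, 10 mM MgCl2, 0.01% Triton X-100, 1 mM DTT, 2% DMSO. IC50 from 4-parameter logistic fit of percent of control.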

[5] = JAK1 Enzyme IC50 1 mM ATP, 1 mM ATP, averaged IC50 ranges

Sequence of Human Tyk2 kinase domain (P29597 886-1187): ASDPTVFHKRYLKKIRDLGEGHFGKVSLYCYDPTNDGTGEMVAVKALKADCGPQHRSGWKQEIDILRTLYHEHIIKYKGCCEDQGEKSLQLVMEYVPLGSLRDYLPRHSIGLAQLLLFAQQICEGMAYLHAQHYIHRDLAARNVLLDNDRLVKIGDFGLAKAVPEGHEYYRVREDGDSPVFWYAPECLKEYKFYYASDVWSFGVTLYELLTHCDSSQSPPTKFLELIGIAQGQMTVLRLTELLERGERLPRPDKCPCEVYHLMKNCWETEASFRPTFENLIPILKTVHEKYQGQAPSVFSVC
Sequence of JAK3 (P52333 whole entry): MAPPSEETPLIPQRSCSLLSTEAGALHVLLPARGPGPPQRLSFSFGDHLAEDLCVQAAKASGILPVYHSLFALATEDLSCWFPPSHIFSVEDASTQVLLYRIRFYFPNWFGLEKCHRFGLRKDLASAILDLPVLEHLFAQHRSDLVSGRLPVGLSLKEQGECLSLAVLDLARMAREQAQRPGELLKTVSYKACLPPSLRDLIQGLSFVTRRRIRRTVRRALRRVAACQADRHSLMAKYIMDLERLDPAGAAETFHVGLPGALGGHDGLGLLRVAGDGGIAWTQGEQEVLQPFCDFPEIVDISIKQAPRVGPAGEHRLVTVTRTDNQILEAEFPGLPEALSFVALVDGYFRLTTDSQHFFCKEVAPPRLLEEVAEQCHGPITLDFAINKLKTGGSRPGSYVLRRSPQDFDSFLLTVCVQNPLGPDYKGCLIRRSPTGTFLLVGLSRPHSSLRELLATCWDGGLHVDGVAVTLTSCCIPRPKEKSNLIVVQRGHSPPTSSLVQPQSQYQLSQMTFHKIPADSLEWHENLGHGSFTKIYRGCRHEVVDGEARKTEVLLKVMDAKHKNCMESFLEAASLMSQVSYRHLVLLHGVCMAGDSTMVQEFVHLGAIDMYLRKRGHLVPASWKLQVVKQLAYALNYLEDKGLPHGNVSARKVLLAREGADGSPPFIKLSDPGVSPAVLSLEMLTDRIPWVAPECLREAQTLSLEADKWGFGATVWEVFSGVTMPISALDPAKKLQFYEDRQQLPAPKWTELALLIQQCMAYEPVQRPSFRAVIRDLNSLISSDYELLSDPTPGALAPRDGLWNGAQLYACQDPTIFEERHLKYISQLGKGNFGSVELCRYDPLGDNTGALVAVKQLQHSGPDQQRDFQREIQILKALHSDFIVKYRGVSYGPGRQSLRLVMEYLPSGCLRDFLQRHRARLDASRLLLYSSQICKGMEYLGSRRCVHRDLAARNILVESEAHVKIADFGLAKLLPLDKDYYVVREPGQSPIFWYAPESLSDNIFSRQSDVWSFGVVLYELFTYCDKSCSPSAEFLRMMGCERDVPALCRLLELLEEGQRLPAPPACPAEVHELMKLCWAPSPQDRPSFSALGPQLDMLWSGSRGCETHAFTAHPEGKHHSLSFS
Sequence of JAK2 (O60674 whole entry): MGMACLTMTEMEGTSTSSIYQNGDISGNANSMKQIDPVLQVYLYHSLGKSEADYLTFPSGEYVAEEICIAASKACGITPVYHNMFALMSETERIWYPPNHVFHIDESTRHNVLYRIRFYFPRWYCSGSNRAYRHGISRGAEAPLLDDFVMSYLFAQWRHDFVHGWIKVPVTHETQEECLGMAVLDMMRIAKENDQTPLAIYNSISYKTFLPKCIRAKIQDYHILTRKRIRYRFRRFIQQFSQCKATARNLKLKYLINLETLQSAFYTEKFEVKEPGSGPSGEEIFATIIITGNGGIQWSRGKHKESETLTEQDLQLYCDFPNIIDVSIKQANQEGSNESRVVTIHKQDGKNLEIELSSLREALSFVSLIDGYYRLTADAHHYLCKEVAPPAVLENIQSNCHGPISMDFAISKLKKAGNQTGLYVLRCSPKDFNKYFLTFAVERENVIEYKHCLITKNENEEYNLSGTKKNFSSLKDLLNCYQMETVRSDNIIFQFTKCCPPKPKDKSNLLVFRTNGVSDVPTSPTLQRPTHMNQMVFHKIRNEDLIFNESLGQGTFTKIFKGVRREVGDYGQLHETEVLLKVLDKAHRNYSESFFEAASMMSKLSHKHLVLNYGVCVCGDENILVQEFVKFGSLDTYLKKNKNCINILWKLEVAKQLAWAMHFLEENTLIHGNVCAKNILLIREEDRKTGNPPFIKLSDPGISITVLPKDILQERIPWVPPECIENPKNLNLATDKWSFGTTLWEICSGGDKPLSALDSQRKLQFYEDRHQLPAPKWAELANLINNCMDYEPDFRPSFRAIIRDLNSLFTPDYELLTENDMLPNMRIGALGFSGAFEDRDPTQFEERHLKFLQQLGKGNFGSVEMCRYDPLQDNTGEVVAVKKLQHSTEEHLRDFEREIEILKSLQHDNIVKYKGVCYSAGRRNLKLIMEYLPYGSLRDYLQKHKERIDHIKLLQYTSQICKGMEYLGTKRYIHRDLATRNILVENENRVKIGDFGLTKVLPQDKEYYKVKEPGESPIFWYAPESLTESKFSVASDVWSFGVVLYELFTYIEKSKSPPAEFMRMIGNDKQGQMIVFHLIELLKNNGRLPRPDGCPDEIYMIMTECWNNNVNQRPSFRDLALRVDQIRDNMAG
Sequence of JAK1 (P23458 whole entry): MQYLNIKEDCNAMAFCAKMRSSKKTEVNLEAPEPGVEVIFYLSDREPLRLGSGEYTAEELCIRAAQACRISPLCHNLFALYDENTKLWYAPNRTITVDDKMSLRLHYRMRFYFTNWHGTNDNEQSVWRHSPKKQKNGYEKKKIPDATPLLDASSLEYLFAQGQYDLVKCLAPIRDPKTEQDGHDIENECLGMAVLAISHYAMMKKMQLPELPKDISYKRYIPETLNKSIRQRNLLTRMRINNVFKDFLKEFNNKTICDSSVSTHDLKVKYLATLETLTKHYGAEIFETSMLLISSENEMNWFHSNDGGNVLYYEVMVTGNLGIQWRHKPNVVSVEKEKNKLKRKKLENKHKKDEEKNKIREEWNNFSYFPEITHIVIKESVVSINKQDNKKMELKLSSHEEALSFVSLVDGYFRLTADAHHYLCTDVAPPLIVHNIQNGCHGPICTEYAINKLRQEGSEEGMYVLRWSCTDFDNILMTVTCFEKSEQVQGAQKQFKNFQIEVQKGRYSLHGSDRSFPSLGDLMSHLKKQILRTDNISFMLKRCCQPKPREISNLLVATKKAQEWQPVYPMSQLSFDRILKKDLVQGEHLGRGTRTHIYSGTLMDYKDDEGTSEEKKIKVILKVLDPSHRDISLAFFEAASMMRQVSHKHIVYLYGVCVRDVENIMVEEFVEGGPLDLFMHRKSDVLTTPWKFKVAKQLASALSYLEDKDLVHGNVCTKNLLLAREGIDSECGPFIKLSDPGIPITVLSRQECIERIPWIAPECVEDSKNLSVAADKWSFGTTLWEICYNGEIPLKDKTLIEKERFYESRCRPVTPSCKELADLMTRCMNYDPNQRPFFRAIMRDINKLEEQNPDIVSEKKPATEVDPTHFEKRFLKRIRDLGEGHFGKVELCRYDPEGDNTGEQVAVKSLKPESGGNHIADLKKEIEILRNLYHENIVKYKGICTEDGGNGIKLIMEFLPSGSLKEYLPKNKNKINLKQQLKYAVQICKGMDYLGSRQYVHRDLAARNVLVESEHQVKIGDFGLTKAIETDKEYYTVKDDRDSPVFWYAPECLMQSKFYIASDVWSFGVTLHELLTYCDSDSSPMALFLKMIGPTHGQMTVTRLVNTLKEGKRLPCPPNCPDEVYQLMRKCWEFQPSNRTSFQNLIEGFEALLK

Row | Compound | IC50 [1] | IC50 [2] | IC50 [3] | IC50 [4] | IC50 [1, 5]
1 | CCC(CC)n1cc(-c2nc(-c3cnn([C@H]4C[C@H](C(=O)N(C)C)C4)c3)cn3nccc23)cn1 [Example 169, (1r,3r)-N,N-dimethyl-3-(4-(4-(1-(pentan-3-yl)-1H-pyrazol-4-yl)pyrazolo[1,5-a]pyrazin-6-yl)-1H-pyrazol-1-yl)cyclobutanecarboxamide] | 1000 to 10000 nM | 100 to 1000 nM | 1000 to 10000 nM | 100 to 1000 nM | 
2 | CCC(CC)n1cc(-c2nc(-c3cnn(CCN4CC[C@H](O)C4)c3)cn3nccc23)cn1 [Example 141, (S)-1-(2-(4-(4-(1-(pentan-3-yl)-1H-pyrazol-4-yl)pyrazolo[1,5-a]pyrazin-6-yl)-1H-pyrazol-1-yl)ethyl)pyrrolidin-3-ol] | 1000 to 10000 nM | 10 to 100 nM | 1000 to 10000 nM | 10 to 100 nM | 
3 | CCC(CC)n1cc(-c2nc(-c3cnn(CC4(CO)CC4)c3)cn3nccc23)cn1 [Example 192, (1-((4-(4-(1-(pentan-3-yl)-1H-pyrazol-4-yl)pyrazolo[1,5-a]pyrazin-6-yl)-1H-pyrazol-1-yl)methyl)cyclopropyl)methanol] |  | 10 to 100 nM | 1000 to 10000 nM | 10 to 100 nM | 10 to 100 nM
4 | CCC(CC)n1cc(-c2nc(-c3cnn(CCN4CC[C@@H](OC)C4)c3)cn3nccc23)cn1 [Example 136, (R)-6-(1-(2-(3-methoxypyrrolidin-1-yl)ethyl)-1H-pyrazol-4-yl)-4-(1-(pentan-3-yl)-1H-pyrazol-4-yl)pyrazolo[1,5-a]pyrazine] | 100 to 1000 nM | 10 to 100 nM | 1000 to 10000 nM | 10 to 100 nM | 
5 | CCC(CC)n1cc(-c2nc(-c3cnn(CCNC4CC(CO)C4)c3)cn3nccc23)cn1 (centres unmarked) [Example 145, (3-((2-(4-(4-(1-(pentan-3-yl)-1H-pyrazol-4-yl)pyrazolo[1,5-a]pyrazin-6-yl)-1H-pyrazol-1-yl)ethyl)amino)cyclobutyl)methanol] | 100 to 1000 nM | 10 to 100 nM | 1000 to 10000 nM | 100 to 1000 nM | 
6 | CC[C@@H](CC1CC1)n1cc(-c2nc(-c3cnn(C[C@@H](O)CO)c3)cn3nccc23)cn1 [Example 205, (R)-3-(4-(4-(1-((S)-1-cyclopropylbutan-2-yl)-1H-pyrazol-4-yl)pyrazolo[1,5-a]pyrazin-6-yl)-1H-pyrazol-1-yl)propane-1,2-diol] |  | 10 to 100 nM | 1000 to 10000 nM | 10 to 100 nM | 100 to 1000 nM
7 | CC(C)n1cc(-c2nc(-c3cnn(C4CCNCC4)c3)cn3nccc23)cn1 [Example 26, 4-(1-isopropyl-1H-pyrazol-4-yl)-6-(1-(piperidin-4-yl)-1H-pyrazol-4-yl)pyrazolo[1,5 a]pyrazine] | 1000 to 10000 nM | 100 to 1000 nM | 1000 to 10000 nM | 100 to 1000 nM | 
8 | CCC(CC)n1cc(-c2nc(-c3cnn(C[C@H]4C[C@@H](O)C4)c3)cn3nccc23)cn1 [Example 120, (1s,3s)-3-((4-(4-(1-(pentan-3-yl)-1H-pyrazol-4-yl)pyrazolo[1,5-a]pyrazin-6-yl)-1H-pyrazol-1-yl)methyl)cyclobutanol] | 100 to 1000 nM | 10 to 100 nM | 1000 to 10000 nM | 10 to 100 nM | 
9 | CCC(CC)n1cc(-c2nc(-c3cnn(C[C@@H](O)CO)c3)cn3nccc23)cn1 [Example 54, (R)-3-(4-(4-(1-(pentan-3-yl)-1H-pyrazol-4-yl)pyrazolo[1,5-a]pyrazin-6-yl)-1H-pyrazol-1-yl)propane-1,2-diol] |  | 10 to 100 nM | 1000 to 10000 nM | 10 to 100 nM | 100 to 1000 nM
10 | CCC(CC)n1cc(-c2nc(-c3cnn(CCN4CCCC4)c3)cn3nccc23)cn1 [Example 135, 4-(1-(pentan-3-yl)-1H-pyrazol-4-yl)-6-(1-(2-(pyrrolidin-1-yl)ethyl)-1H-pyrazol-4-yl)pyrazolo[1,5-a]pyrazine] | 1000 to 10000 nM | 10 to 100 nM | 1000 to 10000 nM | 10 to 100 nM | 
11 | CCC(CC)n1cc(-c2nc(-c3cnn([C@@H]4CCC[C@H]4O)c3)cn3nccc23)cn1 (single isomer, unassigned) [Example 153] |  | 10 to 100 nM | 1000 to 10000 nM | 10 to 100 nM | 100 to 1000 nM
12 | CCC(CC)n1cc(-c2nc(-c3cnn([C@@H]4CCC[C@@H]4O)c3)cn3nccc23)cn1 [Example 189, (1S,2R)-2-(4-(4-(1-(pentan-3-yl)-1H-pyrazol-4-yl)pyrazolo[1,5-a]pyrazin-6-yl)-1H-pyrazol-1-yl)cyclopentanol] |  | 10 to 100 nM | 1000 to 10000 nM | 10 to 100 nM | 1000 to 10000 nM
13 | CCC(CC)n1cc(-c2nc(-c3cnn([C@@H](C)[C@@H](O)CO)c3)cn3nccc23)cn1 (single isomer, unassigned) [Example 91] | 100 to 1000 nM | 10 to 100 nM | 1000 to 10000 nM | 10 to 100 nM | 
14 | CCC(CC)n1cc(-c2nc(-c3cnn(CC(=O)N4CCOCC4)c3)cn3nccc23)cn1 [Example 6, 1-morpholino-2-(4-(4-(1-(pentan-3-yl)-1H-pyrazol-4-yl)pyrazolo[1,5-a]pyrazin-6-yl)-1H-pyrazol-1-yl)ethanone] | 10 to 100 nM | 10 to 100 nM | 1000 to 10000 nM | 10 to 100 nM | 
15 | CCC(CC)n1cc(-c2nc(-c3cnn(C4CCN(C(=O)N(C)C)CC4)c3)cn3nccc23)cn1 [Example 35, N,N-dimethyl-4-(4-(4-(1-(pentan-3-yl)-1H-pyrazol-4-yl)pyrazolo[1,5-a]pyrazin-6-yl)-1H-pyrazol-1-yl)piperidine-1-carboxamide] | 100 to 1000 nM | 10 to 100 nM | 1000 to 10000 nM | 10 to 100 nM | 
16 | CC(C)C[C@H](C)n1cc(-c2nc(-c3cnn(C(CO)CO)c3)cn3nccc23)cn1 [Example 87, (S)-2-(4-(4-(1-(4-methylpentan-2-yl)-1H-pyrazol-4-yl)pyrazolo[1,5-a]pyrazin-6-yl)-1H-pyrazol-1-yl)propane-1,3-diol] | 1000 to 10000 nM | 100 to 1000 nM | 1000 to 10000 nM | 100 to 1000 nM | 
17 | CCC(CC)n1cc(-c2nc(-c3cnn([C@@H](C)[C@H](O)CO)c3)cn3nccc23)cn1 [Example 89, (2S,3S)-3-(4-(4-(1-(pentan-3-yl)-1H-pyrazol-4-yl)pyrazolo[1,5-a]pyrazin-6-yl)-1H-pyrazol-1-yl)butane-1,2-diol] | 100 to 1000 nM | 10 to 100 nM | 1000 to 10000 nM | 10 to 100 nM | 
18 | CC[C@H](CC(F)(F)F)n1cc(-c2nc(-c3cnn(C(CO)CO)c3)cn3nccc23)cn1 [Example 211, (R)-2-(4-(4-(1-(1,1,1-trifluoropentan-3-yl)-1H-pyrazol-4-yl)pyrazolo[1,5-a]pyrazin-6-yl)-1H-pyrazol-1-yl)propane-1,3-diol] | 100 to 1000 nM | 10 to 100 nM | 1000 to 10000 nM | 10 to 100 nM | 
19 | CCC(CC)n1cc(-c2nc(-c3cnn(C4CN(C(=O)CO)C4)c3)cn3nccc23)cn1 [compound 174, 2-hydroxy-1-(3-(4-(4-(1-(pentan-3-yl)-1H-pyrazol-4-yl)pyrazolo[1,5-a]pyrazin-6-yl)-1H-pyrazol-1-yl)azetidin-1-yl)ethanone] | 100 to 1000 nM | 10 to 100 nM | 1000 to 10000 nM | 10 to 100 nM | 
20 | CCC(CC)n1cc(-c2nc(-c3cnn(CC4(O)CCNCC4)c3)cn3nccc23)cn1 [Example 184, 4-((4-(4-(1-(pentan-3-yl)-1H-pyrazol-4-yl)pyrazolo[1,5-a]pyrazin-6-yl)-1H-pyrazol-1-yl)methyl)piperidin-4-ol] |  | 100 to 1000 nM | 1000 to 10000 nM | 100 to 1000 nM | 1000 to 10000 nM
